Patent US8703934B2, “Substituted 4-amino-3,5-dicyano-2-thiopyridines and use thereof” (Bayer Intellectual Property GmbH, priority 2006, dated 2014)

Columns and labels:
Format in all cases: cell-based
[1] = target: T1, adenosine A1 receptor (Homo sapiens, UniProt P30542); assay: Indirect determination of adenosine agonism by way of gene expression (luciferase, CHO cells), A1; conditions: CHO cells stably transfected with A1 receptor cDNA; 1 μM forskolin; 50% inhibition of luciferase answer
T1 construct: expressed in transfected cells; host or cells: CHO (Chinese Hamster Ovary)
T1 sequence (P30542 1-326): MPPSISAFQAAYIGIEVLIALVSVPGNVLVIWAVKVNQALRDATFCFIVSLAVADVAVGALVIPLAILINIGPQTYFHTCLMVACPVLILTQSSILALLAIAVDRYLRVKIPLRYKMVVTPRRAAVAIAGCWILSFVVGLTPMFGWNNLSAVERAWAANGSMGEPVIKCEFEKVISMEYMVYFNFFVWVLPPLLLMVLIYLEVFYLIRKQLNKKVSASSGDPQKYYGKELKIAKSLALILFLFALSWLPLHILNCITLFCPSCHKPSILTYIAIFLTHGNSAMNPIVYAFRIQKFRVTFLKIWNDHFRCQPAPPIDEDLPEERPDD
From the text: (§1) B-1. Indirect Determination of the Adenosine Agonism by Way of Gene Expression
(§2) Cells of the CHO (Chinese Hamster Ovary) permanent cell line are transfected stably with the cDNA for the adenosine receptor subtypes A1, A2a and A2b. The adenosine A1 receptors are coupled to the adenylate cyclase by way of G, proteins, while the adenosine A2a and A2b receptors are coupled by way of Gs proteins. In correspondence with this, the formation of cAMP in the cell is inhibited or stimulated, respectively. After that, expression of the luciferase is modulated by way of a cAMP-dependent promoter. The luciferase test is optimized, with the aim of high sensitivity and reproducibility, low variance and good suitability for implementation on a robot system, by varying several test parameters, such as cell density, duration of the growth phase and the test incubation, forskolin concentration and medium composition. The following test protocol is used for pharmacologically characterizing cells and for the robot-assisted substance screening:
(§3) The stock cultures are grown, at 37° C. and under 5% CO2, in DMEM/F12 medium containing 10% FCS (fetal calf serum) and in each case split 1:10 after 2-3 days. The test cultures are seeded in 384-well plates with 2000 cells per well and grown at 37° C. for approx. 48 hours. The medium is then replaced with a physiological sodium chloride solution (130 mM sodium chloride, 5 mM potassium chloride, 2 mM calcium chloride, 20 mM HEPES, 1 mM magnesium chloride hexahydrate, 5 mM sodium bicarbonate, pH 7.4). The substances to be tested, which are dissolved in DMSO, are pipetted into the test cultures (maximum final concentration of DMSO in the test mixture: 0.5%) in a dilution series of from 5×10^−11M to 3×10^−6M (final concentration). 10 minutes later, forskolin is added to the A1 cells and all the cultures are subsequently incubated at 37° C. for four hours. After that, 35 μl of a solution which is composed of 50% lysis reagent (30 mM disodium hydrogenphosphate, 10% glycerol, 3% TritonX100, 25 mM TrisHCl, 2 mM dithiotreitol (DTT), pH 7.8) and 50% luciferase substrate solution (2.5 mM ATP, 0.5 mM luciferin, 0.1 mM coenzyme A, 10 mM tricine, 1.35 mM magnesium sulfate, 15 mM DTT, pH 7.8) are added to the test cultures, which are shaken for approx 1 minute and the luciferase activity is measured using a camera system. The EC50 values are determined, i.e., the concentrations at which 50% of the luciferase answer is inhibited in the case of the A1 cell, and, respectively, 50% of the maximum stimulation with the corresponding substance is achieved in the case of the A2b and A2a cells. […] Pharmacol., 357 (1998), 1-9).

[2] = target: T2, adenosine A2a receptor (Homo sapiens, UniProt P29274); assay: Indirect determination of adenosine agonism by way of gene expression (luciferase, CHO cells), A2a; conditions: CHO cells stably transfected with A2a receptor cDNA; 50% of maximum luciferase stimulation
T2 construct: expressed in transfected cells; host or cells: CHO (Chinese Hamster Ovary)
T2 sequence (P29274 whole entry): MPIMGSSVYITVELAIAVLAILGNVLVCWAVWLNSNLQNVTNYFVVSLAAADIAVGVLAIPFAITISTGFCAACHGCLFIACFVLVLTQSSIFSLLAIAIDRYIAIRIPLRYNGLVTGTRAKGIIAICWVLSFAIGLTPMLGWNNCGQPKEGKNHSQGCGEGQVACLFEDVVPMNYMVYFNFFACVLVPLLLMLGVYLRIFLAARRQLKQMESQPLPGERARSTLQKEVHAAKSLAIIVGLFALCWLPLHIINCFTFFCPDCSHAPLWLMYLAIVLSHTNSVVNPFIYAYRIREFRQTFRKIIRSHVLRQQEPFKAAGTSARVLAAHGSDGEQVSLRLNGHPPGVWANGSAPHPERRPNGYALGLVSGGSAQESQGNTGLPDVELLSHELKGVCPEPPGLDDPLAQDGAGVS
From the text: as §1, §2, §3

[3] = target: T3, adenosine A2b receptor (Homo sapiens, UniProt P29275); assay: Indirect determination of adenosine agonism by way of gene expression (luciferase, CHO cells), A2b; conditions: CHO cells stably transfected with A2b receptor cDNA; 50% of maximum luciferase stimulation
T3 construct: expressed in transfected cells; host or cells: CHO (Chinese Hamster Ovary)
T3 sequence (P29275 1-332): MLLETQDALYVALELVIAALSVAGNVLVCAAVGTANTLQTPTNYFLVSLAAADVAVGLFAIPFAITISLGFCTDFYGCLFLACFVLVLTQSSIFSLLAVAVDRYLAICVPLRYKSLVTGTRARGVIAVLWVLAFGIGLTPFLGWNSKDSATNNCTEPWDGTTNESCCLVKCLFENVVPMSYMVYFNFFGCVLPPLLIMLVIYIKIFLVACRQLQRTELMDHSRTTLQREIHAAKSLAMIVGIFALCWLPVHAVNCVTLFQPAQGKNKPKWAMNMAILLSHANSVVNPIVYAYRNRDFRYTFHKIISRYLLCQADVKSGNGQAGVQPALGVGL
From the text: as §1, §2, §3

Structure (SMILES) | EC50 [1] [nM] | EC50 [2] [nM] | EC50 [3] [nM]
N#Cc1cnc(SCc2csc(-c3ccc(Cl)cc3)n2)c(C#N)c1N1CCCCC1 [Example 34, 2-({[2-(4-Chlorophenyl)-1,3-thiazol-4-yl]methyl}thio)-4-(piperidin-1-yl)pyridine-3,5-dicarbonitrile] | 46 | > 3000 | > 3000
N#Cc1c(N)nc(SCc2csc(Nc3ccc(F)cc3)n2)c(C#N)c1N1CCCCC1 [Example 6] | 45 | 1810 | > 3000
COc1nc(SCc2csc(-c3ccc(Cl)cc3)n2)c(C#N)c(N2CCCCC2)c1C#N [Example 35, 2-({[2-(4-Chlorophenyl)-1,3-thiazol-4-yl]methyl}thio)-6-methoxy-4-(piperidin-1-yl)pyridine-3,5-dicarbonitrile] | 8.6 | > 3000 | > 3000
CN1CCN(c2c(C#N)c(N)nc(SCc3csc(-c4ccc(Cl)cc4)n3)c2C#N)CC1 [Example 4] | 12 | > 3000 | > 3000
N#Cc1c(SCc2csc(-c3ccc(Cl)cc3)n2)nc(N2CCC(O)C2)c(C#N)c1N1CCCCC1 (stereo not drawn) [Example 30] | 5.7 | 1030 | 56

These reach a lower EC50 [1]. Values come first.

EC50 [1] [nM] | EC50 [2] [nM] | EC50 [3] [nM] | Structure (SMILES)
0.3 | 63 | 0.9 | N#Cc1c(N)nc(SCc2ccc[n+]([O-])c2)c(C#N)c1N1CCCCC1 [Example 27]
2.2 | 357 | 403 | N#Cc1c(N)nc(SCc2coc(-c3ccc(Cl)cc3)n2)c(C#N)c1N1CCCCC1 [Example 37, 2-Amino-6-({[2-(4-chlorophenyl)-1,3-oxazol-4-yl]methyl}sulfanyl)-4-(piperidin-1-yl)pyridine-3,5-dicarbonitrile]
1.3 | 686 | 116 | N#Cc1c(N)nc(SCc2csc(-c3ccc(Cl)cc3)n2)c(C#N)c1N1CCC(O)CC1 [Example 1, 2-Amino-6-({[2-(4-chlorophenyl)-1,3-thiazol-4-yl]methyl}thio)-4-(4-hydroxypiperidin-1-yl)pyridine-3,5-dicarbonitrile]
0.5 | 385 | 44 | N#Cc1c(N)nc(SCc2csc(-c3ccc(Cl)cc3)n2)c(C#N)c1N1CCCCC1 [Example 2]
